Data set [1] can be described thus: Pharmacokinetic evaluation in SD rats (iv and oral). The format is in vivo, Sprague Dawley rats. To be noted: male, Sprague-Dawley, rat, plasma, iv 1.0, po 2.0 mg/kg. The method, then: Assay Example 2: Pharmacokinetic Evaluation of Compounds in Rats
Object of the assay: To evaluate the in vivo pharmacokinetics of the compounds in SD rats
Sprague Dawley rats (male, 200-300 g, 7-9 weeks old, Shanghai SLAC)
The pharmacokinetic characteristics of the compounds in rodents after intravenous injection and oral administration were assayed according to the standard protocol. In the assay, the candidate compounds were formulated into clear solutions and administered to rats by single intravenous injection and oral administration. The vehicle for intravenous injection and oral administration was DMSO and 10% hydroxypropyl β-cyclodextrin in water (DMSO:10% hydroxypropyl β-cyclodextrin in water=5:95). Whole blood samples were collected within 48 hours, and centrifuged at 3000 g for 15 minutes. The supernatant was separated to give plasma samples. 4 times the volume of acetonitrile solution containing internal standard was added to precipitate protein. The resulting mixture was centrifuged and the supernatant was taken out. An equal volume of water was added and the mixture was centrifuged. The supernatant was taken out, and injected as a sample to quantitatively analyze the plasma drug concentration by LC-MS/MS analysis method. The pharmacokinetic parameters, such as peak concentration, time to peak, clearance rate, half-life, area under drug-time curve, bioavailability, etc., were calculated.

Another data set addresses T1, S1P1 (Homo sapiens, UniProt P21453).
T1 construct: host or cells: U2OS
Kind of data set: In vitro agonistic activity on S1P1, U2OS-EDG1 cells, LiveBLAzer FRET B/G. In kind it is cell-based. The method, then:
Assay Example 1: In Vitro Evaluation of the Agonistic Activity of the Compounds of the Present Disclosure on S1P1
Object of the assay: To detect the agonistic activity of compounds on S1P1
• 1. Cells U2OS-EDG1 (Batch No.: Invitrogen-K1520) were taken out of a liquid nitrogen tank and placed in a 37° C. water bath to thaw quickly; • 2. The cell suspension was aspirated into a 15 ml centrifuge tube, resuspended in 5 ml of preheated medium, and centrifuged at 1000 rpm for 5 min; • 3. The supernatant was discarded. The cells were resuspended in 10 ml of medium, transferred into a T75 culture flask, and cultivated in an incubator with 5% CO2 at 37° C. II. Agonist Assay • 1. The compounds were diluted to working concentrations, and serially diluted 3-fold by Echo 555 (manufacturer: Labcyte) to obtain 10 concentrations; 200 nL of each concentration of the compound was transferred to a cell plate and centrifuged at 1000 rpm for 15 seconds; • 2. Culture medium was aspirated from the culture flask; 4 mL of Dulbecco's phosphate buffer (DPBS, supplier: Coring, item No.: 21-031-CVR, batch No.: 03318006) was added, and the residual serum was washed away; 2 mL of trypsin was added; The mixture was incubated in an incubator at 37° C. for 2 min, and the cells were digested; 10 mL of seeding medium was added to resuspend the cells; 0.6 mL of cell suspension was taken out and counted; • 3. The density of cells was adjusted to 1.88E+05 cells/mL using seeding medium, with 40 μL per well (7500\well); 40 μL of FreeStyle™ Expression medium was added around the cell plate; The plate was let stand at room temperature for 15 min and incubated at 37° C. with 5% CO2 for 20 hours. III. Signal Detection • 1. LiveBLAzer™-FRET B/G Substrate (CCF4-AM) assay reagents were formulated according to the instructions; • 2. 8 μL of 6×Substrate Mixture was added to each well of the cell plate; The plate was centrifuged at 1000 rpm for 15 seconds, covered with a film, and incubated at 23° C. for 2 hours; The cell plate was subjected to Envision […] detection. IV. Data Analysis • 1. The raw data were converted into % Effect by using an equation, and the EC50 value can be obtained by curve fitting with four parameters [“log(agonist) vs. response—Variable slope” model in GraphPad Prism]; • 2. Calculation formula: Ratio=(460 nm−blank)/(535 nm−blank) % Effect=(SampleRatio−Ave LCRatio)/(Ave HCRatio−Ave LCRatio)×100%

The test system of data set [2] is ischemia-reperfusion cerebral infarction model. As to the kind of experiment: Ischemia-reperfusion cerebral infarction (MCAO) model in male SD rats. The format is in vivo. Conditions: 90-min MCAO ischemia-reperfusion, 1 mg/kg tail vein after reperfusion, model group 32.4%, P<0.05 vs. model group. The source says:
Assay Example 3: Pharmacodynamic Evaluation of the Compound in Ischemia-Reperfusion Cerebral Infarction Model in Male SD Rats Object of the assay: pharmacodynamic assay to explore the improvement of compound 32 on the ischemia-reperfusion cerebral infarction model in rats Materials of the assay: male SD rats (250 g-280 g, SPF grade, Zhejiang Vital River Laboratory Animal Technology Co., Ltd.) • 1) Anesthesia: Respiratory anesthesia with 2.5% isoflurane was used to maintain the depth of anesthesia for animals. • 2) Middle Cerebral Artery Occlusion (MCAO) Model: Animals weighed in the range of 250-280 g at the time of modeling surgery. […] For the administration of the assay sample group, compound 32 was injected through the tail vein of rats after reperfusion with a dose of 1 mg/kg and a volume of 5 mL/kg. • 3) Success criteria for the model: • 1: Within 60 minutes after surgery, the animals were scored according to the Bederson method, and the animals with a score of 2-3 were included in the group. • 2: Within 30-60 minutes of modeling, if the cerebral blood flow on the model side (left side) was reduced by more than 30% compared with that on the right side, the model was considered successful, and the animal was included in the group. […]

Consider one molecule from patent US12479794B2, “Acetophenone oxime compound and application thereof” (Medshine Discovery Inc., priority 2020, dated 2025).

SMILES strings stand for the structures.

One may read the bioavailability as the share of a dose that reaches the circulation, judged against a reference dose that is usually intravenous. The term EC50 denotes the concentration giving half of the maximal effect. High values mean a need for much substance, low ones an effect from little substance. As a reminder, the Emax is the size of the effect at its maximum, as opposed to the concentration needed.

T1 sequence (P21453 whole entry): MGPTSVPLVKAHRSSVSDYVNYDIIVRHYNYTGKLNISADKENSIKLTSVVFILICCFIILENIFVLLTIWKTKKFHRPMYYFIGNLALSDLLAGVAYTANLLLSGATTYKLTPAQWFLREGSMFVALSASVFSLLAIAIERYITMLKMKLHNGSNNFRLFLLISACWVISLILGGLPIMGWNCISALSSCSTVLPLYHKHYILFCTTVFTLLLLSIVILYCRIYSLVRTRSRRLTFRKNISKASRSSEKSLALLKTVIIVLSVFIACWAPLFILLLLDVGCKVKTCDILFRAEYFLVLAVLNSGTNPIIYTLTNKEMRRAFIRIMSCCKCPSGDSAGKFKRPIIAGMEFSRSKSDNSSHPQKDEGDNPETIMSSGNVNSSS

In the case of `C/C(=N\OCc1ccc(OC(C)C)c(C(F)(F)F)c1)c1ccc2c(c1)CCC2N1CC(C(=O)O)C1` (stereo not drawn) [Compound 32], the clearance in data set [1] (intravenous, read-out: Clearance rate CL) is 0.678 L/h/kg. Besides, in data set [1] (intravenous, read-out: Distribution in tissue Vdss), the Vd amounted to 4.35 L/kg. In addition, the bioavailability in data set [1] (read-out: Bioavailability F) came out at 92.7%. The Cmax in data set [1] (read-out: Peak concentration Cmax) came out at 0.556 µM. For the same molecule, in data set [1] (po, 2 mg/kg, PO, read-out: Area under drug-time curve AUC0-last PO), the AUC(0-t) worked out at 5.47 µM·h. In data set [1] (po, 2 mg/kg, PO, read-out: Half life T1/2 (PO) (converted)), the half-life is 5.44 h. Besides, at S1P1, the midpoint of the response, the EC50, lay at 2.3 nM. The Emax at S1P1 (% Effect) turned out to be 98.6%. Further, in data set [2], the “Percentage of left cerebral infarct area” value was found to be 21.0%.
